For nine compounds, IC50 and inhibition results are on record in ChEMBL document CHEMBL3232948 (J Med Chem, 2014).

For orientation: IC50 means the concentration at which inhibition is half-maximal. A higher IC50 goes with weaker potency.

The target of assay [1] is T1, Neuraminidase (Influenza A virus, UniProt B4URF0). Kind of assay: Inhibition of Influenza A virus SN33 H1N1 neuraminidase using MU-NANA as substrate after 1 hr by spectrofluorometric analysis.
The target in assay [2] is T1, Neuraminidase. Also noted: species or system Influenza A virus (A/Anhui/1/2005(H5N1)).
In assay [3] the target is T1, Neuraminidase. The arrangement: species or system Influenza A virus (A/California/04/2009(H1N1)).
For assay [4], the target named is Neuraminidase (Influenza A virus) (UniProt B4URF0). Kind of assay: Inhibition of Influenza A virus (A/California/04/2009(H1N1)) wild-type neuraminidase using MU-NANA as substrate at 1000 nM after 1 hr.
Neuraminidase (Influenza A virus), sequence (B4URF0 as listed by the source): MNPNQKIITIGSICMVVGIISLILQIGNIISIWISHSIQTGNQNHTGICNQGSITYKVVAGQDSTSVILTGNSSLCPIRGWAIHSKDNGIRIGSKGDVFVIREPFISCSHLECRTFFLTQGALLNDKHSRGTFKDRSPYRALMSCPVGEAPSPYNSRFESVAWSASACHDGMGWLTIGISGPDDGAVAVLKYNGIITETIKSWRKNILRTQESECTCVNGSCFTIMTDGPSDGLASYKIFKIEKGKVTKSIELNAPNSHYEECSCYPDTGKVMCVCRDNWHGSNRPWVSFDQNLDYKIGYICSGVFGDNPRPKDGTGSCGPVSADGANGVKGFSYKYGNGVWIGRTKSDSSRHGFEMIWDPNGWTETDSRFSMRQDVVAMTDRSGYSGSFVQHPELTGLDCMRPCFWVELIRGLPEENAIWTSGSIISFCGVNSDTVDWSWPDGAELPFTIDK

The structures appear in SMILES notation. Active and inactive are the calls of the source. The calls are words filed in the database; no cut-off is given here.

T1 sequence (B4URF0 whole entry): as the sequence (B4URF0 as listed by the source) above

As for `CC(=O)N[C@H]1C([C@H](O)[C@H](O)CO)OC(C(=O)O)=C[C@@H]1NC(=N)NC(=O)CSc1ccc2ccccc2c1` (stereo partly specified), the IC50 against Neuraminidase [1] was found to be 20 nM.

For `CCC(CC)O[C@@H]1C=C(C(=O)O)C[C@H](N/C(N)=N/O)[C@H]1NC(C)=O`, the IC50 against Neuraminidase [2] was determined as 33 nM; at Neuraminidase [3] it was 3.7 nM.

Regarding `CCC/N=C(\N)N[C@H]1CC(C(=O)O)=C[C@@H](OC(CC)CC)[C@@H]1NC(C)=O`, in assay [4], the inhibition result is “inactive”.

In the case of `C=CC/N=C(\N)N[C@H]1CC(C(=O)O)=C[C@@H](OC(CC)CC)[C@@H]1NC(C)=O`, the inhibition result in assay [4] was “inactive”.

For the compound `CCC(CC)O[C@@H]1C=C(C(=O)O)C[C@H](N/C(N)=N/CC(F)(F)F)[C@H]1NC(C)=O`, the inhibition result in assay [4] was “inactive”.

As for `CCC(CC)O[C@@H]1C=C(C(=O)O)C[C@H](N/C(N)=N/C)[C@H]1NC(C)=O`, the 50% inhibitory concentration (IC50) is 3.6 nM at Neuraminidase [2] and 1.73 nM against Neuraminidase [3].

In the case of `CCC(CC)O[C@@H]1C=C(C(=O)O)C[C@H](N/C(N)=N/C2CC2)[C@H]1NC(C)=O`, in assay [4], the inhibition result is “inactive”.

Consider `CC/N=C(\N)N[C@H]1CC(C(=O)O)=C[C@@H](OC(CC)CC)[C@@H]1NC(C)=O`, for which the inhibition result in assay [4] is “inactive”.

As to `CCC(CC)O[C@@H]1C=C(C(=O)O)C[C@H](N/C(N)=N/C(C)C)[C@H]1NC(C)=O`, the inhibition result in assay [4] was “inactive”.
